Measured values as given in article PMC4163382, “Symbiotic Plant Peptides Eliminate Candida albicans Both In Vitro and in an Epithelial Infection Model and Inhibit the Proliferation of Immortalized Human Cells” (BioMed Research International, 2014).
Ends that are not written are not given here. Peptide text beside a SMILES is read from it.

Assays:
[1] = test system: C. albicans strains WO-1 and Sc 5314; experiment: Microdilution antifungal assay, summary for C. albicans; assay type: cell-based, Candida albicans; details: strains WO-1 and Sc 5314, LSM medium, microdilution plate assay
Method: (§1) The antifungal activity of the NCR peptides against C. albicans strains and other Candida species was determined in vitro using 96-well flat bottom microtiter plates (Sarstedt). Fifty microliters of dilutions from each peptide (final concentrations in the assays ranged from 2.5 to 100 μg/mL) was added to 50 μL of 10^4 cells mL^−1 and 10^5 cells mL^−1 in LSM. The plates were incubated at 30°C and the peptide concentrations that prevented the germination of yeast cells were determined by microscopic analysis and measurement of absorbance at 600 nm with a microtiter plate reader (FLUOstar OPTIMA; BMG Labtech) after 24 and 48 hours. Minimal inhibitory concentration (MIC) was determined as the lowest concentration of the peptide at which there was no visible and measurable growth after 24 hours of incubation. To determine whether the antifungal effect was fungistatic or fungicidal, 10 μL from each treatment was dropped onto solid YPD plate after 3 and 24 hours. Plates were incubated at 30°C for 48 hours and developing colonies were observed. Minimal fungicidal concentration (MFC) was defined where no fungal growth could be observed.

C. albicans WO-1 = assay type: cell-based, Candida albicans; details: for Minimal fungicidal concentration, 3 h: WO-1, 3 h; for Minimal fungicidal concentration, 24 h: WO-1, 24 h
Method: as §1

Molecule	Anticandidal activity against the yeast form of growing C. albicans [1]	Minimal fungicidal concentration, 3 h (C. albicans WO-1)	Minimal fungicidal concentration, 24 h (C. albicans WO-1)
CC[C@H](C)[C@H](NC(=O)[C@H](CC(N)=O)NC(=O)[C@H](Cc1c[nH]cn1)NC(=O)[C@@H]1CCCN1C(=O)[C@@H]1CCCN1C(=O)[C@H](CCSC)NC(=O)[C@H](CCCNC(=N)N)NC(=O)[C@@H]1CCCN1C(=O)[C@H](CS)NC(=O)[C@H](CC(=O)O)NC(=O)[C@H](CCCCN)NC(=O)[C@H](CC(=O)O)NC(=O)[C@@H](NC(=O)[C@H](CC(C)C)NC(=O)[C@H](CS)NC(=O)[C@@H]1CCCN1C(=O)[C@H](CCCNC(=N)N)NC(=O)[C@H](CC(C)C)NC(=O)[C@@H](NC(=O)[C@@H](N)CCSC)[C@@H](C)O)[C@@H](C)O)C(=O)N[C@@H](CCCCN)C(=O)N[C@@H](CS)C(=O)N[C@@H](CCCNC(=N)N)C(=O)N[C@@H](CCCCN)C(=O)NCC(=O)N[C@@H](Cc1c[nH]cn1)C(=O)N[C@@H](CS)C(=O)N[C@H](C(=O)N1CCC[C@H]1C(=O)N[C@H](C(=O)NCC(=O)N[C@@H](CCCCN)C(=O)N1CCC[C@H]1C(=O)N[C@@H](Cc1ccccc1)C(=O)N[C@@H](CCCCN)C(=O)O)[C@@H](C)CC)C(C)C [NCR137] (H-MTLRPCLTDKDCPRMPPHNIKCRKGHCVPIGKPFK-OH; N-terminus and C-terminus assumed)	exhibited anticandidal activity	20 (±2.5) μg/mL	25 (±3) μg/mL
CC[C@H](C)[C@H](N)C(=O)N[C@@H](Cc1ccc(O)cc1)C(=O)N[C@@H](Cc1ccccc1)C(=O)N1CCC[C@H]1C(=O)N[C@H](C(=O)N[C@@H](CO)C(=O)N[C@@H](CCCNC(=N)N)C(=O)N1CCC[C@H]1C(=O)N[C@@H](CS)C(=O)N[C@H](C(=O)N[C@H](C(=O)N[C@@H](CC(=O)O)C(=O)N[C@@H](CCCCN)C(=O)N[C@@H](CC(=O)O)C(=O)N[C@@H](CS)C(=O)N1CCC[C@H]1C(=O)N[C@@H](CC(N)=O)C(=O)N[C@@H](CCSC)C(=O)N[C@@H](CCCCN)C(=O)N[C@@H](Cc1c[nH]cn1)C(=O)N[C@@H](Cc1ccc(O)cc1)C(=O)N[C@@H](CCCCN)C(=O)N[C@@H](C)C(=O)N[C@@H](CCCCN)C(=O)N[C@@H](CS)C(=O)N[C@@H](CCCNC(=N)N)C(=O)N[C@@H](CCCCN)C(=O)NCC(=O)N[C@@H](Cc1ccccc1)C(=O)N[C@@H](CS)C(=O)N[C@H](C(=O)N[C@@H](CO)C(=O)N[C@@H](CO)C(=O)N[C@@H](CCCNC(=N)N)C(=O)N[C@H](C(=O)N[C@@H](CCCNC(=N)N)C(=O)O)C(C)C)[C@@H](C)CC)[C@@H](C)O)[C@@H](C)CC)C(C)C [NCR147] (H-IYFPVSRPCITDKDCPNMKHYKAKCRKGFCISSRVR-OH; N-terminus and C-terminus assumed)	exhibited anticandidal activity	8 (±6.5) μg/mL	9 (±4) μg/mL
ITISNSSFGRIVYWNCKTDKDCKQHRGFNFRCRSGNCIPIRR (cysteines drawn unpaired) [NCR183]	exhibited anticandidal activity	16.5 (±12) μg/mL	15.5 (±13) μg/mL
